In US20250161287A1, “METHODS, COMPOSITIONS, AND COMBINATIONS FOR PREVENTING OR TREATING CANCER RECURRENCE” (VUJA DE SCIENCES, INC., priority 2022, published 2025):

Key:
K7M2 OS cell line [1] = experiment: 2D growth / cytotoxicity by MTT, K7M2; assay type: cell-based, mouse
Experimental: The number of viable cells present in 2D culture was determined by MTT as previously reported. Briefly, cells were plated in 96-well plates at 2,000 cells/well and incubated at 37° C. for 24 h. […] After 72 h, MTT reagent (20 L/well of a 5 mg/mL stock solution in sterile water; Sigma, St. Louis, MO) was added to each well and the plate was incubated at 37° C. for 2 h. DMSO ([…]) was then added to each well to solubilize the formazan crystals.
(§1) The resulting absorbance was measured at 490 nm via plate reader (Molecular Devices, San Jose, CA). DMSO (0.1%) was used as vehicle control, while 20 μM rapamycin was used as a positive cell-kill control. The experimental conditions were conducted in triplicate and each experiment was repeated three times. Regression lines and IC50's were calculated using a four-parameter variable slope nonlinear fit in GraphPad Prism.

K7M2 OS cell line [2] = experiment: in vitro 3D BME assay with K7M2 OS cell line; assay type: cell-based, mouse; conditions: K7M2, Day 6 MTS, at or below 1 μM
Source text: (§2) 3D basement membrane extract (BME) assay was developed at the NCI Barkan (D. Barkan et al. 2008; Dalit Barkan and Green 2011; Hen and Barkan 2020). BME is purified from Engelbreth-Holm-Swarm (EHS) tumor, primarily made up of laminin, collagen IV, entactin, and heparin sulfate proteoglycans (Cultrex Reduced Growth Factor Basement Membrane Extract, PathClear n.d.), which allows it to more accurately reflect the 3D extracellular environment in the body.
(§3) Initially >150 selected therapeutic agents were tested on BME based on the likelihood for either a positive effect or a […] negative effect (as negative controls). […] These therapeutic agents were also tested in dose response (as broad as 1 pM-100 μM) for 2D cytotoxicity (MTT) and the IC50 was calculated. Where required, the hits from the initial screen were also further characterized at additional doses <100 nM in order to further determine the relative selectivity compared to the 2D IC50.
(§4) The influence of drug exposure on the metastatic phenotype was assessed in an in vitro assay of ME and escape from dormancy using a 3D BME assay as previously reported, which was adapted for use with OS cells.
(§5) Cultrex® PathClear, Reduced Growth Factor Basement Membrane Extract (BME—Bio-Techne, Minneapolis, MN) was added ([…]) to a 96-well plate and allowed to gel by incubating at 37° C. for ≥30 min. Cells were harvested, washed with DMEM (no glucose, no FBS, Gibco, Grand Island, NY) and centrifuged at 1500 g×5 mins. The media was aspirated and the remaining cell pellet flicked for about 10 s to ensure disaggregation.
(§6) Cells were diluted in assay media containing 2% BME, resuspended vigorously and 150 μL of the cell suspension was added on top of the gelled 3D BME layer. […] Cell numbers were determined in control vehicle (cells in media+0.1% DMSO), or treated wells and were measured on the indicated days by addition of 20 μL/well of MTS reagent (Cell Titer 96 Aqueous One, Promega, Madison, WI), followed by incubation at 37° C. for 2 h and absorbance measurements at 490 nm via plate reader (Molecular Devices, San Jose CA).
(§7) All conditions were conducted in quadruplicate and each experiment was carried out at least 3 separate times. All comparisons were made between treatment and vehicle control at concordant time points. Statistical analyses and non-linear regressions were derived using GraphPad Prism statistical software.

JAK1 = JAK1 (Homo sapiens, UniProt P23458); conditions: cited from earlier work
MG63.3 OS cell line [3] = experiment: 2D growth / cytotoxicity by MTT, MG63.3; conditions: MG63.3, MTT, exposures up to 1 μM / assessed exposures
Experimental: The number of viable cells present in 2D culture was determined by MTT as previously reported. Briefly, cells were plated in 96-well plates at 2,000 cells/well and incubated at 37° C. for 24 h. After 24 h, the media was replaced with fresh media containing drugs at the desired concentrations (10 pM-10 μM) and incubated at 37° C. for 72 h. After 72 h, MTT reagent (20 L/well of a 5 mg/mL stock solution in sterile water; Sigma, St. Louis, MO) was added to each well and the plate was incubated at 37° C. for 2 h. DMSO ([…]) was then added to each well to solubilize the formazan crystals.
as §1

MG63.3 OS cell line [4] = experiment: in vitro 3D BME assay with MG63.3 OS cell line; assay type: cell-based, human; conditions: MG63.3, Day 6 MTS, at or below 1 μM
Source text: as §2, §3, §4, §5, §6, §7

JAK1, sequence (P23458 whole entry, species assumed): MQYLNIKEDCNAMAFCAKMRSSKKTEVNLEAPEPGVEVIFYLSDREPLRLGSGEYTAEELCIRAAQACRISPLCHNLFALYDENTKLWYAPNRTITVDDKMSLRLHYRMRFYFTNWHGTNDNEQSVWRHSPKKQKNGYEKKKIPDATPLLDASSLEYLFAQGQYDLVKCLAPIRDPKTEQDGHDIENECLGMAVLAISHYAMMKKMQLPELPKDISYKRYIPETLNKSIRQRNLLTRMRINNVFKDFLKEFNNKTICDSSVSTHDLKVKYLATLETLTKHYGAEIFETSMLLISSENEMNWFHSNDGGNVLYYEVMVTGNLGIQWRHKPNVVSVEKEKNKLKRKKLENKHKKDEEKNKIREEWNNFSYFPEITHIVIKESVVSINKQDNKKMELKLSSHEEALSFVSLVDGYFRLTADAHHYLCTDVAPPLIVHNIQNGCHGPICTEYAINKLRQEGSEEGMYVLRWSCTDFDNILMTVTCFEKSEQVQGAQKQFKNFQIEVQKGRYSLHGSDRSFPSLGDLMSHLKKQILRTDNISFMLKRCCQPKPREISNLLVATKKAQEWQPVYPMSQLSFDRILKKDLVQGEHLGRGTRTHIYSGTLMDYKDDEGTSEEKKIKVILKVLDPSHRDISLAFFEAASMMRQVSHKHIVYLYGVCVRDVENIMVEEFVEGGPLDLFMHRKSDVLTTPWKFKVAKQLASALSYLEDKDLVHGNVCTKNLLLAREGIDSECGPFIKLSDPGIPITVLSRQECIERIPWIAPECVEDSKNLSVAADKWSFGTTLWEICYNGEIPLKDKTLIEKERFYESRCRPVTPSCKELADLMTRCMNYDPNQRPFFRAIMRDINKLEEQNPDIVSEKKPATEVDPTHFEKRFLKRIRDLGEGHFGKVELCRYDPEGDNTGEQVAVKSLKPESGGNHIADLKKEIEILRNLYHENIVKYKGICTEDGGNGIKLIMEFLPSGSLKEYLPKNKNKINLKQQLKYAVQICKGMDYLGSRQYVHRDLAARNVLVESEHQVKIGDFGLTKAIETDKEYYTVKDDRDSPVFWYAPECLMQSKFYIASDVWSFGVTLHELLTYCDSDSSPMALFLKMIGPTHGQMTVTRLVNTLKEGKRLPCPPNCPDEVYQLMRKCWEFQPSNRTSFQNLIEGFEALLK

## CNS(=O)(=O)C[C@H]1CC[C@H](N(C)c2ncnc3[nH]ccc23)CC1 [oclacitinib]
K7M2 OS cell line [1]; K7M2, MTT 72 h, 10 pM-100 μM
  non-cytotoxic drug exposures in 2D: below 1 μM
K7M2 OS cell line [1]; K7M2, MTT, exposures up to 1 μM
  effect on cell number in 2D monolayer: minimal inhibition of OS cell number
K7M2 OS cell line [2]
  effect on metastatic phenotype / 3D growth in 3D BME (words): statistically significant but very minimal inhibition
K7M2 OS cell line [2]; listed as Oclacitinib
  effect on metastatic phenotype / 3D growth in 3D BME (words): statistically significant but very small level of inhibition
JAK1
  inhibitory action against JAK1 relative to JAK2: 1.8 times
  inhibitory action against JAK1 relative to JAK3: 9.9 times
MG63.3 OS cell line [3]
  effect on cell number in 2D monolayer: minimal inhibition of OS cell number
MG63.3 OS cell line [4]
  effect on metastatic phenotype / 3D growth in 3D BME (words): did not inhibit MG63.3 cells at any dose
MG63.3 OS cell line [4]; listed as Oclacitinib
  effect on metastatic phenotype / 3D growth in 3D BME (words): no significant effect
